In PubChem BioAssay AID2060626 (Molecular Pharmacology Branch, DTP, NCI, 2025):

Tested on: 168753-222-R-J1-PDC complex spheroid viability
Assay: Anticancer human tumor 168753-222-R-J1-PDC patient-derived bladder carcinoma cell line growth inhibition [CLK]
Settings: for IC50: curve of first compound; for viability, T/C: stronger effect = lower value; active = viability on the fitted dose curve at most 10% of control; inactive = the rest
Procedure, shortened: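 Patient-derived tumor cells grown as complex spheroids with HUVEC endothelial cells and mesenchymal stem cells, treated with drug combinations. Concentrations descend in half-log steps from near clinical Cmax, or from 10 microM if Cmax unknown.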

[1] = second compound 0.0316 µM, first compound 0.0316 µM
[2] = second compound 0.0316 µM, first compound 0.1 µM
[3] = second compound 0.0316 µM, first compound 0.316 µM
[4] = second compound 0.0316 µM, first compound 1 µM
[5] = second compound 0.0316 µM, first compound 3.16 µM
[6] = second compound 0.0316 µM, first compound 10 µM
[7] = second compound 0.1 µM, first compound 0.0316 µM
[8] = second compound 0.1 µM, first compound 0.1 µM
[9] = second compound 0.1 µM, first compound 0.316 µM
[10] = second compound 0.1 µM, first compound 1 µM
[11] = second compound 0.1 µM, first compound 3.16 µM
[12] = second compound 0.1 µM, first compound 10 µM
[13] = second compound 0.316 µM, first compound 0.0316 µM
[14] = second compound 0.316 µM, first compound 0.1 µM
[15] = second compound 0.316 µM, first compound 0.316 µM
[16] = second compound 0.316 µM, first compound 1 µM
[17] = second compound 0.316 µM, first compound 3.16 µM
[18] = second compound 0.316 µM, first compound 10 µM
[19] = second compound 1 µM, first compound 0.0316 µM
[20] = second compound 1 µM, first compound 0.1 µM
[21] = second compound 1 µM, first compound 0.316 µM
[22] = second compound 1 µM, first compound 1 µM
[23] = second compound 1 µM, first compound 3.16 µM
[24] = second compound 1 µM, first compound 10 µM
[25] = second compound 3.16 µM, first compound 0.0316 µM
[26] = second compound 3.16 µM, first compound 0.1 µM
[27] = second compound 3.16 µM, first compound 0.316 µM
[28] = second compound 3.16 µM, first compound 1 µM
[29] = second compound 3.16 µM, first compound 3.16 µM
[30] = second compound 3.16 µM, first compound 10 µM
[31] = second compound 10 µM, first compound 0.0316 µM
[32] = second compound 10 µM, first compound 0.1 µM
[33] = second compound 10 µM, first compound 0.316 µM
[34] = second compound 10 µM, first compound 1 µM
[35] = second compound 10 µM, first compound 3.16 µM
[36] = second compound 10 µM, first compound 10 µM
[37] = second compound 0.0316 µM, first compound 0.00316 µM
[38] = second compound 0.0316 µM, first compound 0.01 µM
[39] = second compound 0.1 µM, first compound 0.00316 µM
[40] = second compound 0.1 µM, first compound 0.01 µM
[41] = second compound 0.316 µM, first compound 0.00316 µM
[42] = second compound 0.316 µM, first compound 0.01 µM
[43] = second compound 1 µM, first compound 0.00316 µM
[44] = second compound 1 µM, first compound 0.01 µM
[45] = second compound 3.16 µM, first compound 0.00316 µM
[46] = second compound 3.16 µM, first compound 0.01 µM
[47] = second compound 10 µM, first compound 0.00316 µM
[48] = second compound 10 µM, first compound 0.01 µM
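Also: viability measured after seven days of drug exposure.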
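For viability, T/C in this document: luminescence signal used as surrogate for viable cell amount; 100% = DMSO vehicle control wells.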

CC(=O)O[C@H]1C(=O)[C@@]2(C)[C@H]([C@H](OC(=O)c3ccccc3)[C@]3(O)C[C@H](OC(=O)[C@H](O)[C@@H](NC(=O)c4ccccc4)c4ccccc4)C(C)=C1C3(C)C)[C@]1(OC(C)=O)CO[C@@H]1C[C@@H]2O + CN1CCN(c2cc(C(=O)Nc3cc4cc(-c5cnn(C)c5)ccc4cn3)ccn2)CC1
inactive: viability, T/C [1] 22.1% | viability, T/C [2] 11.1% | viability, T/C [3] 11.2% | viability, T/C [4] 10.7% | viability, T/C [5] 11.2% | viability, T/C [6] 12.3% | viability, T/C [7] 12.3% | viability, T/C [8] 10.6% | viability, T/C [9] 10.9% | viability, T/C [10] 9.64% | viability, T/C [11] 9.88% | viability, T/C [12] 11.4% | viability, T/C [13] 10.7% | viability, T/C [14] 10.2% | viability, T/C [15] 10.4% | viability, T/C [16] 9.61% | viability, T/C [17] 10.3% | viability, T/C [18] 13.2%
active: viability, T/C [19] 0.12% | viability, T/C [20] 0.32% | viability, T/C [21] 0.16% | viability, T/C [22] 0.11% | viability, T/C [23] 0.15% | viability, T/C [24] 0.21% | viability, T/C [25] 0.05% | viability, T/C [26] 0.19% | viability, T/C [27] 0.17% | viability, T/C [28] 0.06% | viability, T/C [29] 0.09% | viability, T/C [30] 0.14% | viability, T/C [31] 0.07% | viability, T/C [32] 0.11% | viability, T/C [33] 0.51% | viability, T/C [34] 0.1% | viability, T/C [35] 0.17% | viability, T/C [36] 0.23%
< 31.6 nM: IC50 (second compound 0.0316 µM) | IC50 (second compound 0.1 µM) | IC50 (second compound 0.316 µM) | IC50 (second compound 1 µM) | IC50 (second compound 3.16 µM) | IC50 (second compound 10 µM)

Cn1ncnc1[C@H]1c2n[nH]c(=O)c3cc(F)cc(c23)N[C@@H]1c1ccc(F)cc1 + CN1CCN(c2cc(C(=O)Nc3cc4cc(-c5cnn(C)c5)ccc4cn3)ccn2)CC1
inactive: viability, T/C (second compound 0.0316 µM, first compound 0.000316 µM) 90.2% | viability, T/C (second compound 0.0316 µM, first compound 0.001 µM) 95.1% | viability, T/C [37] 70.5% | viability, T/C [38] 101% | viability, T/C [1] 97.9% | viability, T/C [2] 58.2% | viability, T/C (second compound 0.1 µM, first compound 0.000316 µM) 58.7% | viability, T/C (second compound 0.1 µM, first compound 0.001 µM) 72.5% | viability, T/C [39] 54.7% | viability, T/C [40] 18.7% | viability, T/C [7] 25.8% | viability, T/C [8] 56%
4.08 nM: IC50 (second compound 0.1 µM)
> 100 nM: IC50 (second compound 0.0316 µM)
active: viability, T/C (second compound 0.316 µM, first compound 0.000316 µM) 9.67% | viability, T/C (second compound 0.316 µM, first compound 0.001 µM) 9.41% | viability, T/C [41] 8.77% | viability, T/C [42] 7.96% | viability, T/C [13] 8.57% | viability, T/C [14] 8.4% | viability, T/C (second compound 1 µM, first compound 0.000316 µM) 0.18% | viability, T/C (second compound 1 µM, first compound 0.001 µM) 0.28% | viability, T/C [43] 0.18% | viability, T/C [44] 0.53% | viability, T/C [19] 0.24% | viability, T/C [20] 0.51% | viability, T/C (second compound 3.16 µM, first compound 0.000316 µM) 1.24% | viability, T/C (second compound 3.16 µM, first compound 0.001 µM) 0.1% | viability, T/C [45] 0.18% | viability, T/C [46] 0.06% | viability, T/C [25] 0.26% | viability, T/C [26] 0.88% | viability, T/C (second compound 10 µM, first compound 0.000316 µM) 0.11% | viability, T/C (second compound 10 µM, first compound 0.001 µM) 0.27% | viability, T/C [47] 0.25% | viability, T/C [48] 0.1% | viability, T/C [31] 0.21% | viability, T/C [32] 0.19%
< 0.316 nM: IC50 (second compound 0.316 µM) | IC50 (second compound 1 µM) | IC50 (second compound 3.16 µM) | IC50 (second compound 10 µM)

CCc1c2c(nc3ccc(O)cc13)-c1cc3c(c(=O)n1C2)COC(=O)[C@]3(O)CC + CN1CCN(c2cc(C(=O)Nc3cc4cc(-c5cnn(C)c5)ccc4cn3)ccn2)CC1
16.9 nM: IC50 (second compound 0.0316 µM)
inactive: viability, T/C [37] 77.7% | viability, T/C [38] 65.3% | viability, T/C [1] 29.3% | viability, T/C [2] 30.1% | viability, T/C [3] 13.1% | viability, T/C [4] 8.39% | viability, T/C [39] 32.6% | viability, T/C [40] 36.1% | viability, T/C [7] 20.5% | viability, T/C [8] 12.4% | viability, T/C [41] 9.06%
active: viability, T/C [9] 8.78% | viability, T/C [10] 6.92% | viability, T/C [42] 8.44% | viability, T/C [13] 7.99% | viability, T/C [14] 9.04% | viability, T/C [15] 2.19% | viability, T/C [16] 0.99% | viability, T/C [43] 0.14% | viability, T/C [44] 0.16% | viability, T/C [19] 0.1% | viability, T/C [20] 0.08% | viability, T/C [21] 0.24% | viability, T/C [22] 1.02% | viability, T/C [45] 0.15% | viability, T/C [46] 0.15% | viability, T/C [25] 0.25% | viability, T/C [26] 0.08% | viability, T/C [27] 0.11% | viability, T/C [28] 0.31% | viability, T/C [47] 0.66% | viability, T/C [48] 0.14% | viability, T/C [31] 0.19% | viability, T/C [32] 0.14% | viability, T/C [33] 0.18% | viability, T/C [34] 0.45%
< 3.16 nM: IC50 (second compound 0.1 µM) | IC50 (second compound 0.316 µM) | IC50 (second compound 1 µM) | IC50 (second compound 3.16 µM) | IC50 (second compound 10 µM)

COc1ccc([C@@H](O)c2cc(-c3ncnc4cc(N5CCOCC5)ccc34)c(F)cc2Cl)nn1 + CNC(=O)c1ccc(Nc2nc(OC3CCCC3)c3c(-c4ccc5nc(C)oc5c4)c[nH]c3n2)c(OC)c1
565 nM: IC50 (second compound 0.316 µM)
1690 nM: IC50 (second compound 0.1 µM)
inactive: viability, T/C [1] 107% | viability, T/C [2] 94% | viability, T/C [3] 88.3% | viability, T/C [4] 67.8% | viability, T/C [5] 27% | viability, T/C [6] 15.9% | viability, T/C [7] 91.1% | viability, T/C [8] 94.5% | viability, T/C [9] 82.7% | viability, T/C [10] 69.4% | viability, T/C [11] 27.9% | viability, T/C [12] 16.8% | viability, T/C [13] 75.6% | viability, T/C [14] 78.9% | viability, T/C [15] 67.3% | viability, T/C [16] 32.5% | viability, T/C [17] 20.7% | viability, T/C [18] 13.9% | viability, T/C [19] 41.9% | viability, T/C [20] 27.2% | viability, T/C [21] 26.3% | viability, T/C [22] 18.4% | viability, T/C [23] 16.5% | viability, T/C [24] 13.5% | viability, T/C [25] 25.3% | viability, T/C [26] 23.7% | viability, T/C [27] 21.1% | viability, T/C [28] 16.6% | viability, T/C [29] 17.8% | viability, T/C [30] 15.8% | viability, T/C [31] 18.5% | viability, T/C [32] 21.5% | viability, T/C [33] 20.8% | viability, T/C [34] 15.9% | viability, T/C [35] 15.4% | viability, T/C [36] 11.3%
1620 nM: IC50 (second compound 0.0316 µM)
< 31.6 nM: IC50 (second compound 1 µM) | IC50 (second compound 3.16 µM) | IC50 (second compound 10 µM)
